Results taken from patent US9670227B2, “Thienopyrimidine derivatives, a process for their preparation and pharmaceutical compositions containing them” (LES LABORATOIRES SERVIER, priority 2013, dated 2017).
Read-outs that look alike come from different tables or passages of the source.

What was measured:
[1] = tested on: H929 multiple myeloma tumour line; assay: In vitro cytotoxicity, Microculture Tetrazolium Assay; assay type: cell-based
Experimental: The cytotoxicity studies were carried out on the H929 multiple myeloma tumour line.
The cells are distributed onto microplates and exposed to the test compounds for 48 hours.

[2] = target: Mcl-1 protein (UniProtKB primary accession number: Q07820) (Homo sapiens, UniProt Q07820); assay: Inhibition of Mcl-1 by fluorescence polarisation, Method 1; assay type: binding; settings: read-out: IC50 (M) Mcl-1 FP
Procedure, shortened: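 FP readout of relative binding potency. Mcl-1 5 nM final, fluorescein-labelled ligand 1 nM final; buffer 10 mM HEPES, 150 mM NaCl, 0.05% Tween 20, pH 7.4; 11-pt dilution series, 5% DMSO final.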

[3] = Homo sapiens, NCI-H929, 48 h, H929 cells, 48 hours exposure, MTT, read-out: IC50 (μM) MTT H929
[4] = fluorescence polarisation test, Method 2 values are underlined in the patent (underlining not visible here)
[5] = H929 cells, 48 hours exposure, MTT, read-out: IC50 (μM) MTT H929
[6] = Homo sapiens, NCI-H929, 48 h, read-out: IC50 (μM) MTT H929, H929 cells, 48 hours exposure, MTT
[7] = fluorescence polarisation, Method 1, or Method 2
[8] = fluorescence polarisation test, Method 1, or Method 2 where the value is underlined (underlining not visible)

Sequence of Mcl-1 protein (Q07820 whole entry): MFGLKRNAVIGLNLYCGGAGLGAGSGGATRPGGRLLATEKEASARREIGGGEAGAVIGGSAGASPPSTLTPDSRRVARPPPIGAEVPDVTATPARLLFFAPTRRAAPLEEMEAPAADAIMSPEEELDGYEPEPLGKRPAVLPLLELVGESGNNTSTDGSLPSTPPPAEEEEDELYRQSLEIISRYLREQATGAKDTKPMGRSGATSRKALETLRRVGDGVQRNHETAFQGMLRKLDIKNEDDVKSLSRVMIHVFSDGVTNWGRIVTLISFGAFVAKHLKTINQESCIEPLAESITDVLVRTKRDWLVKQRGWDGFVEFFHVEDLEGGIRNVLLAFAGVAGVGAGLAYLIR

Compound	IC50 [1, 3]	IC50 [2, 4]	IC50 [1, 5]	further results
CCCCCn1nccc1C(C)Oc1ccccc1CC(Oc1ncnc2sc(-c3ccc(F)cc3)c(-c3ccc(OCCN4CCN(C)CC4)c(Cl)c3C)c12)C(=O)O (single isomer, unassigned) [Example 5, (2R)-2-{[(5Sa)-5-{3-chloro-2-methyl-4-[2-(4-methylpiperazin-1-yl)ethoxy]phenyl}-6-(4-fluorophenyl)thieno[2,3-d]pyrimidin-4-yl]oxy}-3-{2-[(1R or S)-1-(1-pentyl-1H-pyrazol-5-yl)ethoxy]phenyl}propanoic acid]	0.418 µM	6.2e-09 M	–	–
CCCCCn1nccc1C(C)Oc1ccccc1CC(Oc1ncnc2sc(-c3ccc(F)cc3)c(-c3ccc(OCCN4CCN(C)CC4)c(Cl)c3C)c12)C(=O)O (single isomer, unassigned) [Example 6, (2R)-2-{[(5Sa)-5-{3-chloro-2-methyl-4-[2-(4-methylpiperazin-1-yl)ethoxy]phenyl}-6-(4-fluorophenyl)thieno[2,3-d]pyrimidin-4-yl]oxy}-3-{2-[(1S or R)-1-(1-pentyl-1H-pyrazol-5-yl)ethoxy]phenyl}propanoic acid]	–	4.9e-09 M	0.332 µM	–
Cc1c(-c2c(-c3ccc(F)cc3)sc3ncnc(OC(Cc4ccccc4OCc4cnccn4)C(=O)O)c23)ccc(OC2CCCN(C)C2)c1Cl (single isomer, unassigned) [Example 141, (2R)-2-{[(5Sa)-5-{3-chloro-2-methyl-4-[((3S or R)-1-methylpiperidin-3-yl)oxy]phenyl}-6-(4-fluorophenyl)thieno[2,3-d]pyrimidin-4-yl]oxy}-3-[2-(pyrazin-2-ylmethoxy)phenyl]propanoic acid]	–	3.1e-08 M	0.27 µM	–
Cc1c(-c2c(-c3ccc(F)cc3)sc3ncnc(OC(Cc4ccccc4OCc4cnccn4)C(=O)O)c23)ccc(OC2CCCN(C)C2)c1Cl (single isomer, unassigned) [Example 142, (2R)-2-{[(5Sa)-5-{3-chloro-2-methyl-4-[((3R or S)-1-methylpiperidin-3-yl)oxy]phenyl}-6-(4-fluorophenyl)thieno[2,3-d]pyrimidin-4-yl]oxy}-3-[2-(pyrazin-2-ylmethoxy)phenyl]propanoic acid]	–	4.2e-08 M	1.67 µM	–
COc1ccccc1CC(Oc1ncnc2sc(-c3ccco3)c(-c3ccc(OC4CCCN(C)C4)c(Cl)c3C)c12)C(=O)O (single isomer, unassigned) [Example 301, (2R)-2-{[(5Sa)-5-{3-chloro-2-methyl-4-[((3R or S)-1-methylpiperidin-3-yl)oxy]phenyl}-6-(furan-2-yl)thieno[2,3-d]pyrimidin-4-yl]oxy}-3-(2-methoxyphenyl)propanoic acid]	–	1.2e-08 M	0.108 µM	–
COc1ccccc1CC(Oc1ncnc2sc(-c3ccco3)c(-c3ccc(OC4CCCN(C)C4)c(Cl)c3C)c12)C(=O)O (single isomer, unassigned) [Example 302, (2R)-2-{[(5Sa)-5-{3-chloro-2-methyl-4-[((3S or R)-1-methylpiperidin-3-yl)oxy]phenyl}-6-(furan-2-yl)thieno[2,3-d]pyrimidin-4-yl]oxy}-3-(2-methoxyphenyl)propanoic acid]	–	1.4e-08 M	1.59 µM	–
COc1ccccc1CC(Oc1ncnc2sc(-c3ccco3)c(-c3ccc(OC4CCNC4)c(Cl)c3C)c12)C(=O)O (single isomer, unassigned) [Example 305, (2R)-2-({(5Sa)-5-[3-chloro-2-methyl-4-((3S or R)-pyrrolidin-3-yloxy)phenyl]-6-(furan-2-yl)thieno[2,3-d]pyrimidin-4-yl}oxy)-3-(2-methoxyphenyl) propanoic acid]	1.64 µM	6.9e-08 M	–	–
COc1ccccc1CC(Oc1ncnc2sc(-c3ccco3)c(-c3ccc(OC4CCNC4)c(Cl)c3C)c12)C(=O)O (single isomer, unassigned) [Example 306, (2R)-2-({(5Sa)-5-[3-chloro-2-methyl-4-((3R or S)-pyrrolidin-3-yloxy)phenyl]-6-(furan-2-yl)thieno[2,3-d]pyrimidin-4-yl}oxy)-3-(2-methoxyphenyl)propanoic acid]	–	1.4e-08 M	1.12 µM	–
COc1ccccc1CC(Oc1ncnc2sc(-c3ccco3)c(-c3ccc(OC4CN5CCC4CC5)c(Cl)c3C)c12)C(=O)O (single isomer, unassigned) [Example 307, (2R)-2-({(5Sa)-5-[4-((3S or R)-1-azabicyclo[2.2.2]oct-3-yloxy)-3-chloro-2-methylphenyl]-6-(furan-2-yl)thieno[2,3-d]pyrimidin-4-yl}oxy)-3-(2-methoxyphenyl)propanoic acid]	0.998 µM	8.3e-09 M	–	–
COc1ccccc1CC(Oc1ncnc2sc(-c3ccco3)c(-c3ccc(OC4CN5CCC4CC5)c(Cl)c3C)c12)C(=O)O (single isomer, unassigned) [Example 308, (2R)-2-({(5Sa)-5-[4-((3R or S)-1-azabicyclo[2.2.2]oct-3-yloxy)-3-chloro-2-methylphenyl]-6-(furan-2-yl)thieno[2,3-d]pyrimidin-4-yl}oxy)-3-(2-methoxyphenyl)propanoic acid]	–	5.9e-09 M	1.5 µM	–
COc1ccccc1CC(Oc1ncnc2sc(-c3ccco3)c(-c3ccc(OCC4CCCCN4C)c(Cl)c3C)c12)C(=O)O (single isomer, unassigned) [Example 309, (2R)-2-{[(5Sa)-5-{3-chloro-2-methyl-4-[((2S or R)-1-methylpiperidin-2-yl)methoxy]phenyl}-6-(furan-2-yl)thieno[2,3-d]pyrimidin-4-yl]oxy}-3-(2-methoxyphenyl)propanoic acid]	1.48 µM	1e-08 M	–	–
COc1ccccc1C[C@@H](Oc1ncnc2sc(-c3ccco3)c(-c3ccc(OCCN4CCN(C)CC4)c(F)c3C)c12)C(=O)O (single isomer, unassigned) [Example 334]	–	1.4e-08 M	–	IC50 [1, 6]: 0.968 µM
COc1ccccc1CC(Oc1ncnc2sc(C3CCCO3)c(-c3ccc(OCCN4CCN(C)CC4)c(Cl)c3C)c12)C(=O)O (single isomer, unassigned) [Example 591, (2R)-2-{[(5Sa)-5-{3-chloro-2-methyl-4-[2-(4-methylpiperazin-1-yl)ethoxy]phenyl}-6-((2R or S)-tetrahydrofuran-2-yl)thieno[2,3-d]pyrimidin-4-yl]oxy}-3-(2-methoxyphenyl)propanoic acid]	1.67 µM	–	–	IC50 [2, 7]: 6.5e-08 M
COc1ccccc1C[C@@H](Oc1ncnc2sc(-c3ccc(F)cc3)c(-c3ccc(CCCN4CCN(C)CC4)c(Cl)c3C)c12)C(=O)O (single isomer, unassigned) [Example 654]	–	–	–	IC50 [1, 6]: 2.08 µM; IC50 [2, 7]: 4e-08 M
Cc1c(-c2c(-c3ccc(F)o3)sc3ncnc(OC(Cc4ccccc4OCc4ccnn4CC(F)(F)F)C(=O)O)c23)ccc(OCCN2CCN(C)CC2)c1Cl [Example 185, (2R)-2-{[(5Sa)-5-{3-chloro-2-methyl-4-[2-(4-methylpiperazin-1-yl)ethoxy]phenyl}-6-(5-fluorofuran-2-yl)thieno[2,3-d]pyrimidin-4-yl]oxy}-3-(2-{[1-(2,2,2-trifluoroethyl)-1H-pyrazol-5-yl]methoxy}phenyl)propanoic acid]	–	–	–	IC50 ([1]; Homo sapiens, NCI-H929, 48 h, read-out: IC50 (μM) MTT H929): 0.012 µM
Cc1c(-c2c(-c3ccco3)sc3ncnc(OC(Cc4ccccc4OCc4ccnn4CC(F)(F)F)C(=O)O)c23)ccc(OCCN2CCN(C)CC2)c1Cl [Example 265, (2R)-2-{[(5Sa)-5-{3-chloro-2-methyl-4-[2-(4-methylpiperazin-1-yl)ethoxy]phenyl}-6-(furan-2-yl)thieno[2,3-d]pyrimidin-4-yl]oxy}-3-(2-{[1-(2,2,2-trifluoroethyl)-1H-pyrazol-5-yl]methoxy}phenyl)propanoic acid]	0.016 µM	–	–	–
COc1ccccc1-c1nccc(COc2ccccc2CC(Oc2ncnc3sc(-c4ccc(F)cc4)c(-c4ccc(OCCN5CCN(C)CC5)c(Cl)c4C)c23)C(=O)OC(C)OC(=O)C(C)C)n1 [Example 861, 1-[(2-methylpropanoyl)oxy]ethyl (2R)-2-{[(5Sa)-5-{3-chloro-2-methyl-4-[2-(4-methylpiperazin-1-yl)ethoxy]phenyl}-6-(4-fluorophenyl)thieno[2,3-d]pyrimidin-4-yl]oxy}-3-(2-{[2-(2-methoxyphenyl)pyrimidin-4-yl]methoxy}phenyl)propanoate]	–	–	–	IC50 [2, 8]: 5.77e-07 M
COCC(=O)OC(C)OC(=O)[C@@H](Cc1ccccc1OCc1ccnc(-c2ccccc2OC)n1)Oc1ncnc2sc(-c3ccc(F)cc3)c(-c3ccc(OCCN4CCN(C)CC4)c(Cl)c3C)c12 (stereo partly drawn) [Example 864, 1-[(methoxyacetyl)oxy]ethyl (2R)-2-{[5-{3-chloro-2-methyl-4-[2-(4-methylpiperazin-1-yl)ethoxy]phenyl}-6-(4-fluorophenyl)thieno[2,3-d]pyrimidin-4-yl]oxy}-3-(2-{[2-(2-methoxyphenyl)pyrimidin-4-yl]methoxy}phenyl)propanoate]	–	–	–	IC50 [2, 8]: 2.7e-08 M
(2R)-2-{[(5Sa)-5-(3-chloro-2-methylphenyl)-6-ethylthieno[2,3-d]pyrimidin-4-yl]oxy}-3-phenylpropanoic acid and (2S)-2-{[(5Ra)-5-(3-chloro-2-methylphenyl)-6-ethylthieno[2,3-d]pyrimidin-4-yl]oxy}-3-phenylpropanoic acid [Example 449]	–	–	–	IC50 [2, 7]: 2.8e-08 M
